Counter-ions that a name gives are not always drawn. Like-named read-outs stand apart in the source and are kept apart here.
How the values were obtained:
SD rats = conditions: for maximum tolerance dose: female rats, single intragastric dose
Excerpt: The test was a single-dose toxicity test of SD rats by intragastric administration through mouth.

[1] = test system: MM.1S human multiple myeloma SCID mouse transplanted tumor; assay: Pharmacodynamic test, SCID mouse transplanted tumor model; type: in vivo; conditions: 0.0166 mmol/kg intragastric; for Average tumor relative volume RVT5 / Average tumor relative volume RVT8 / Average tumor relative volume RVT12 / Average tumor relative volume RVT15 / Average tumor relative volume RVT18: twice a week; for Average tumor relative volume RVT5 / Average tumor relative volume RVT8 / Average tumor relative volume RVT12 / Average tumor relative volume RVT15 / Average tumor relative volume RVT18 / Tumor weight (g): X ± SD; for Tumor weight (g): after the 18th day
Experimental: In the experiment, a SCID mouse transplanted tumor model of a human multiple myeloma cell line MM.1S was used. Specific modeling steps were as follows: frozen MM.1S cells were resuscitated and cultured in vitro according to a routine, and the cells were collected in a logarithmic growth phase, and diluted with PBS to form a tumor cell suspension with a concentration of 5×10^7/ml. […] About 1 week to 2 weeks after injection, the mass was palpable in axillary, and in vivo passage was performed when a tumor volume was larger than 500 mm^3. After the mouse was killed by a neck pulling method, a body surface was disinfected, skin was cut open, aseptic operation was performed, a tumor tissue was peeled off from an axillary subcutaneous tissue, a fibrous capsule was removed, and the tumor was taken out. The tumor was washed clean in normal saline, and then cut, and after removing the central necrotic part, the tumor tissue with good growth, reddish color and fish flesh shape was selected, then was cut into 1 mm×1 mm×1 mm small pieces, and placed in normal saline for later use. The cut tumor was placed in a mouth of a No. 18 trocar, iodized cotton was used to disinfect the side of the armpit close to the back of the mouse, and local inoculation was performed. The transplanted tumor used in the test was the 4th generation of in vivo passage. When the tumor volume of most SCID mice of in vivo passage was larger than 100 mm^3, the tumor volume was measured and calculated, and the mice were randomly grouped according to the tumor volume.
The administration mode was intragastric administration through mouth, with an administration volume of 10 ml/kg. The model control group was given the same volume of solvent intragastrically. The mice were all intragastrically administrated through mouth twice a week for a total of 5 times, i.e., the mice were administrated at the 1st, 5th, 8th, 12th and 15th days of the experiment, with a duration of 18 days.
Doses of different tested samples were equimolar, with a specific dose of 0.0166 mmol/kg; and the model control group was only given normal saline. The medicines were 8b and 8l, as well as Ixazomib Citrate (MLN9708) and Ixazomib (MLN2238).
On the 5th, 8th, 12th, 15th and 18th days after administration, a short diameter (a) and a long diameter (b) of the tumor of each mouse were measured with a vernier caliper, and the tumor volume was calculated according to a formula (a^2×b)/2. A relative tumor volume (RTV) was calculated based on the tumor volume measured and calculated, RTV=Vt/V0. V0 was the tumor volume at random grouping (i.e., d0) and Vt was the tumor volume at each measurement (i.e., dn). A relative tumor proliferation rate of an anti-tumor activity evaluation index was calculated according to the following formula: relative tumor proliferation rate T/C (%): […]
(Note: TRTV was a RTV of the treatment group; and CRTV was a RTV of the model control group. An evaluation standard of a curative effect was T/C %≤40%, and the medicine was effective when P<0.05 after statistical treatment).
After weighing and measuring the tumor on the 18th day, all animals were sacrificed, and the tumor was taken and weighed.

hERG potassium channel = hERG potassium channel (Homo sapiens, UniProt Q12809); assay: Inhibition test of hERG potassium channel of heart (patch clamp); type: cell-based
Excerpt: An inhibitory effect of the tested compound on hERG was judged by a general standard (Roche O. et al. ChemBioChem. 2002, 3:455-459.):
When a hERG semi-inhibitory concentration of a medicine exceeded about 30 times of a peak concentration thereof in blood, the concentration was in a relatively safe range (Redfernelt al, Cardiovascular Research, 58, 32-45 (2003)).

[2] = High-temperature and high-humidity accelerated stability test; type: physicochemical; conditions: compared with compounds 8l, MLN9708, MLN2238 of the prior art
Excerpt: In addition, the compound of the present invention has better stability.

[3] = test system: RPMI-8226 (human multiple myeloma cell); assay: In vitro activity test (CCK-8 cell growth inhibition); type: cell-based; conditions: 48 hours incubation
Experimental: (§1) Cells RPMI-8226 (human multiple myeloma cell) and MM.1S (human multiple myeloma cell) were cultured in a RPMI 1640 medium containing 10% fetal bovine serum at 37[…] under 5% CO2 to a logarithmic growth phase. The cells were respectively inoculated into a 96-well culture plate in a quantity of 3×10^4/well. After culturing for 24 hours at 37[…] under 5% CO2, a solvent control DMSO (dimethyl sulfoxide) or a tested compound (the tested compound taken 0.3 μM as an initial concentration, was diluted 3 times each time, and was diluted 5 times in total to obtain 6 concentration gradients) dissolved in the DMSO was added into the cells. The tested compound was incubated with the cells for 48 hours at 37[…] under 5% CO2. A CCK-8 reagent was added into each well, and incubated at 37 °C for 2 hours according to a reagent specification, and an optical density value of each well was read at a wavelength of 450 nm using a spectrophotometer.
(§2) An optical density value of the cells when the medicine acted for 0 hour was set as a Tz value, which represented a value of the cells when the medicine was added. The optical density value of the cells when the solvent control DMSO acted for 48 hours was set as a C value; and the optical density value of the cells when the tested compound acted for 48 hours was set as a Ti value. According to a method proposed by the NIH-NCI (National Institutes of Health-National Cancer Institute) of the United States, a response of the cells to a medicine was calculated: when Ti≥Tz, the response was [(Ti−Tz)/(C−Tz)]×100; and when Ti<Tz, the response was [(Ti−Tz)/Tz]×100. According to the calculation above, a GI50 value (a concentration of the tested compound required when a cell growth inhibition rate was 50%) was calculated by the 4 Parameter Logistic Model in the XLfit software.

[4] = test system: MM.1S (human multiple myeloma cell); assay: as above; type: cell-based; conditions: MM1.S, 48 hours incubation, read-out: MM.IS cell GI50 (μM) value
Experimental: as §1, §2

[5] = dose 1, 0.001108 mmol/kg single intragastric dose, 6 female rats, 14 days observation
[6] = dose 1, 0.001108 mmol/kg single intragastric dose, 6 male rats, 14 days observation
[7] = dose 2, 0.001662 mmol/kg single intragastric dose, 6 female rats, 14 days observation
[8] = dose 2, 0.001662 mmol/kg single intragastric dose, 6 male rats, 14 days observation
[9] = dose 4, 0.00277 mmol/kg single intragastric dose, 6 female rats, 14 days observation
[10] = dose 4, 0.00277 mmol/kg single intragastric dose, 6 male rats, 14 days observation
[11] = dose 3, 0.002216 mmol/kg single intragastric dose, 6 female rats, 14 days observation

hERG potassium channel, sequence (Q12809 whole entry): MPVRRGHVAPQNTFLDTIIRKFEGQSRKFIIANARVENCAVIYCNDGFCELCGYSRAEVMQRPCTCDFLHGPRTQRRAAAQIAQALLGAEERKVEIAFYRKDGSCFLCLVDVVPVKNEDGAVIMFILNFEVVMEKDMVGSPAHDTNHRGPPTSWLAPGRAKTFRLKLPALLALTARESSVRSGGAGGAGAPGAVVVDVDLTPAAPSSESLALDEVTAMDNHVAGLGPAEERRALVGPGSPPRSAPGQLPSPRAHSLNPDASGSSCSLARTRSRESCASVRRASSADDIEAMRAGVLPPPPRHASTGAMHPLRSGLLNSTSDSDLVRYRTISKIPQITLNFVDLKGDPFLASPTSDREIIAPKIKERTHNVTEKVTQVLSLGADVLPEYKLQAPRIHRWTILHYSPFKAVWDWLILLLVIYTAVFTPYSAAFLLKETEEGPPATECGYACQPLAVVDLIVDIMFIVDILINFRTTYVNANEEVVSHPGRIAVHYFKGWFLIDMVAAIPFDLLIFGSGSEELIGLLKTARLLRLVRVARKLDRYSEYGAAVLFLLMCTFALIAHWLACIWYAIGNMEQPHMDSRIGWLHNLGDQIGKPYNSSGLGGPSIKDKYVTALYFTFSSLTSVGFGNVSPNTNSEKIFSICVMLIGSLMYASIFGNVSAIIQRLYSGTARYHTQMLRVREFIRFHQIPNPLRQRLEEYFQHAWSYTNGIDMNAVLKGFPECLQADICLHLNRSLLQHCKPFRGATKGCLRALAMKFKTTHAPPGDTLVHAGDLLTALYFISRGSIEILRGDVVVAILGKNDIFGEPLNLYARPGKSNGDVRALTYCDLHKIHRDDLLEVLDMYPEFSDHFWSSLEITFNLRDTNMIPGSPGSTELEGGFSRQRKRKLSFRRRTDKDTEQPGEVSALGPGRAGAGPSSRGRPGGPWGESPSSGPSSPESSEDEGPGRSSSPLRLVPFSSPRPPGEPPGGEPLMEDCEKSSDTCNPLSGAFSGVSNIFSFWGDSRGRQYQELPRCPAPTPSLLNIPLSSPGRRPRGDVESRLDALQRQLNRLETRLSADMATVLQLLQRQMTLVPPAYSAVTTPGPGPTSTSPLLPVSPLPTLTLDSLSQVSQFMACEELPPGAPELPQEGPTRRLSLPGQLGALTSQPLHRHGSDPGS

SMILES	Female Suvival (SD rats; [5])	Male Suvival (SD rats; [6])	Female Death (SD rats; [7])	Female Suvival (SD rats; [7])	Male Death (SD rats; [8])	Male Suvival (SD rats; [8])	Female Death (SD rats; [9])	Female Suvival (SD rats; [9])	Male Death (SD rats; [10])	Male Suvival (SD rats; [10])	maximum tolerance dose (SD rats) [mmol/kg]	Relative tumor proliferation rate T/C(%) ([1]; 5th day)	Average tumor relative volume RVT5 ([1]; 5th day)	Relative tumor proliferation rate T/C(%) ([1]; 8th day)	Average tumor relative volume RVT8 ([1]; 8th day)	Relative tumor proliferation rate T/C(%) ([1]; 12th day)	Average tumor relative volume RVT12 ([1]; 12th day)	Relative tumor proliferation rate T/C(%) ([1]; 15th day)	GI50 [3] [µM]	GI50 [4] [µM]	further results
CC(C)C[C@H](NC(=O)CNC(=O)c1cc(Cl)ccc1Cl)B(O)O [Ixazomib (MLN2238), Ixazomib]	6	6	2	4	0	6	6	0	0	6	0.001108	87.8^★★ %	1.522 ± 0.273^★★	45.44^★ %	1.238 ± 0.841^★▴▴	22.51^★★ %	0.898 ± 0.749^★★▴▴	10.8^★★ %			Female Death (SD rats; [5]): 0; Male Death (SD rats; [6]): 0; Female Death (SD rats; rat, in vivo): 4; Female Suvival (SD rats; rat, in vivo): 2; Male Death (SD rats; rat, in vivo): 0; Male Suvival (SD rats; rat, in vivo): 6; Average tumor relative volume RVT15 ([1]; 15th day): 0.489 ± 0.343^★★▴▴; Relative tumor proliferation rate T/C(%) ([1]; 18th day): 2.43^★★ %; Average tumor relative volume RVT18 ([1]; 18th day): 0.163 ± 0.132^★★▴▴; Tumor weight (g) [1]: 0.374 ± 0.291^★★ g
CC(C)C[C@H](NC(=O)CNC(=O)c1cc(Cl)ccc1Cl)B1OC(=O)C(CC(=O)O)(CC(=O)O)O1 [Ixazomib (MLN9708), Ixazomib Citrate]	6	6	1	5	0	6	6	0	0	6	0.001108	82.56^★★ %	1.431 ± 0.452^★★	20.94%	0.571 ± 0.305	6.13^★★ %	0.245 ± 0.123^★★▴▴	4.42^★★ %			Female Death (SD rats; [5]): 0; Male Death (SD rats; [6]): 0; Female Death (SD rats; rat, in vivo): 3; Female Suvival (SD rats; rat, in vivo): 3; Male Death (SD rats; rat, in vivo): 0; Male Suvival (SD rats; rat, in vivo): 6; Average tumor relative volume RVT15 ([1]; 15th day): 0.214 ± 0.133^★★▴▴; Relative tumor proliferation rate T/C(%) ([1]; 18th day): 3.06^★★ %; Average tumor relative volume RVT18 ([1]; 18th day): 0.205 ± 00.151^★★▴▴; Tumor weight (g) [1]: 0.284 ± 0.312^★ g
CC(C)C[C@H](NC(=O)CNC(=O)c1cc(Br)ccc1Cl)B1OC(=O)c2ccccc2O1 [compound 8a]																					hERG current inhibition ratio % (hERG potassium channel; 0.3 μM, n 3): 1.47% ±; hERG current inhibition ratio % (hERG potassium channel; 1 μM, n 3): 5.53% ±; hERG current inhibition ratio % (hERG potassium channel; 3 μM, n 3): 4.36% ±; hERG current inhibition ratio % (hERG potassium channel; 10 μM, n 3): 11.24% ±; hERG current inhibition ratio % (hERG potassium channel; 30 μM, n 3): 7.86% ±; inhibitory effect on the hERG potassium channel (judged by general standard) (hERG potassium channel; judged by the standard of b169): no inhibitory effect; IC50 (hERG potassium channel; patch clamp, n 3): > 30000 nM; stability under high-temperature and high-humidity accelerated test condition [2]: better stabilities
CC(C)C[C@H](NC(=O)CNC(=O)c1cc(Cl)ccc1Cl)B1OC(=O)[C@@H](c2ccccc2)O1 [compound 8l, 2-chloro-5-chloro-N-[2-({(1R)-3-methyl-1-[(5R)-4-oxo-5-phenyl-1,3,2-dioxaborolan-2-yl]butyl}amino)-2-oxoethyl]benzamide]	6	6	1	5	0	6	6	0	0	6	0.001108	103.30^★★ %	1.791 ± 0.540^★★	63.82^★★ %	1.739 ± 0.783^★★▴	36.37^★★ %	1.451 ± 0.676^★★▴▴	23.24^★★ %			Female Death (SD rats; [11]): 2; Female Suvival (SD rats; [11]): 4; Male Suvival (SD rats; dose 3, 0.002216 mmol/kg single intragastric dose, 6 male rats, 14 days observation): 6; Female Death (SD rats; female, rat, in vivo, 0.001108 mmol/kg, 14 days): 0; Male Death (SD rats; male, rat, in vivo, 0.001108 mmol/kg, 14 days): 0; Male Death (SD rats; male, rat, in vivo, 0.002216 mmol/kg, 14 days): 0; Average tumor relative volume RVT15 ([1]; 15th day): 1.127 ± 0.667^★★▴▴; Relative tumor proliferation rate T/C(%) ([1]; 18th day): 8.38^★ %; Average tumor relative volume RVT18 ([1]; 18th day): 0.561 ± 0.468^★★▴▴; Tumor weight (g) [1]: 0.560 ± 0.566^★ g
CC(C)C[C@H](NC(=O)CNC(=O)c1cc(Br)ccc1Cl)B1OC(=O)c2ccccc2O1 [drawing 39]																			0.00619	0.00209	
CC(C)C[C@H](NC(=O)CNC(=O)c1cc(Br)ccc1Cl)B1OC(=O)[C@@H](c2ccccc2)O1 [drawing 40]																			0.00598	0.00275	
CC(C)C[C@H](NC(=O)CNC(=O)c1cc(Br)ccc1Cl)B1OCCNCCO1 [drawing 41]																			0.00651	0.00713	
CC(C)C[C@H](NC(=O)CNC(=O)c1cc(Cl)ccc1Br)B1OCCNCCO1 [drawing 42]																			0.006	0.00816	
CC(C)C[C@H](NC(=O)CNC(=O)c1cc(Cl)ccc1Cl)B1OC(=O)[C@@H](c2ccccc2)O1 [drawing 43]																			0.0216	0.0186	
